Source: paper PMC8710297, “Identification of potent SENP1 inhibitors that inactivate SENP1/JAK2/STAT signaling pathway and overcome platinum drug resistance in ovarian cancer” (Clinical and Translational Medicine, 2021)

Target: T1, SENP1 (Homo sapiens, UniProt Q9P0U3)
T1 sequence (Q9P0U3 1-644): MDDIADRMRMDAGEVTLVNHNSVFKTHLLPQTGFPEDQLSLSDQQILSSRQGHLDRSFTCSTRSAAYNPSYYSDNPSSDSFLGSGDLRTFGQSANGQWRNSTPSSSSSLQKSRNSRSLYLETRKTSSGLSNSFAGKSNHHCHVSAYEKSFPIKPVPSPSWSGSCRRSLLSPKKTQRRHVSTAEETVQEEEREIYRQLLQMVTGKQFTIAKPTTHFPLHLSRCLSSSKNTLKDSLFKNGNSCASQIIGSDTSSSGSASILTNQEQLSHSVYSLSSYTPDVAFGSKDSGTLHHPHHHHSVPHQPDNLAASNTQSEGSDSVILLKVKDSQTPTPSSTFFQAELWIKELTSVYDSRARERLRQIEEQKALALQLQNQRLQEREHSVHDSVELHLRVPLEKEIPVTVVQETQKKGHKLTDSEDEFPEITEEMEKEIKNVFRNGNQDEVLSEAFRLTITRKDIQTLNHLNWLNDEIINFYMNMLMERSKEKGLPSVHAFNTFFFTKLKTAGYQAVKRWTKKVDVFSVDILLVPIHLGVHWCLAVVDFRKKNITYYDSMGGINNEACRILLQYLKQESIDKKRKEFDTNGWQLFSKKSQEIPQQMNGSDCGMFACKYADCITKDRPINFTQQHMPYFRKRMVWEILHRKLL
Assay: Cellular thermal shift assay
Type: cell-based
Design: endogenous in cells; host or cells: IGROV1 CR cells
Conditions: IGROV1 CR cells, 4 h, higher temperatures
Method: FIGURE 2 UA directly interacts with Sentrin‐specific protease 1 (SENP1). (A) Cellular thermal shift assay to examine the interaction of UA with SENP1. IGROV1 CR cells pretreated with MG132 (10 μM, 1 h) were incubated with DMSO or UA for 4 h before being shifted to indicated temperatures. SENP1 stability was analyzed by using Western blot against SENP1 antibody. Right panel, quantification of non‐denatured SENP1 fraction shown in the left panel. (B) Cell‐free thermal shift assay to examine interactions of UA with SENP1. Purified SENP1 proteins were incubated with DMSO or UA for 4 h before being shifted to the indicated temperatures. SENP1 stability was analyzed by using Western blot against SENP1 antibody. Right panel, quantification of non‐denatured SENP1 fraction shown in the left panel. […] Stability of SENP1(C603A) was analyzed by using Western blot against SENP1 antibody. […] Left; Ultra‐high performance liquid‐chromatography‐MS/MS analyses of associated UA in indicated samples, right; quantification of data shown in left (the binding affinity of UA with SENP1‐C603A was normalized as 1). […]
FIGURE 3 Identification of UAMMC9 from UA derivatives. […] Stability of SENP1(C603A) was analyzed by using Western blot against SENP1 antibody. […]
The qu anti ficatio n of immunohistochemical sta in ing wa s scored blindly at lea st by two […]

C[C@H]1[C@H](C)CC[C@]2(C(=O)NCC(=O)N(C)CCO)CC[C@]3(C)C(=CC[C@@H]4[C@@]5(C)CC[C@H](O)C(C)(C)[C@@H]5CC[C@]43C)[C@H]12 [UAMMC9]
thermal stabilization of SENP1 in cells: directly interacted with SENP1

C[C@H]1[C@H](C)CC[C@]2(C(=O)O)CC[C@]3(C)C(=CC[C@@H]4[C@@]5(C)CC[C@H](O)C(C)(C)[C@@H]5CC[C@]43C)[C@H]12 [UA, ursolic acid, reference compound]
thermal stabilization of SENP1 in cells: stabilized
